In patent publication US6495576B2, “Aminal diones as potassium channel openers” (Abbott Laboratories, priority 2001, dated 2002):
pEC50: −log10 of the molar value. Read-outs that look alike come from different tables or passages of the source.

Experiments:
[1] = tested on: primary cultured guinea-pig urinary bladder (GPB) cells; assay: Membrane hyperpolarization (MHP) assay, DiBAC(4)3 fluorescence on FLIPR; type: cell-based; conditions: for Maximal Response (%P1075): maximal steady-state hyperpolarization, normalized to response with 10 μM P1075 (100%); for pEC50: Cavia porcellus, concentration eliciting 50% of the maximal response of the test sample
Protocol: Compounds were evaluated for potassium channel opening activity using primary cultured guinea-pig urinary bladder (GPB) cells.
For the preparation of urinary bladder smooth muscle cells, urinary bladders were removed from male guinea-pigs (Hartley, Charles River, Wilmington, Mass.) weighing 300-400 g and placed in ice-cold Ca^2+-free Krebs solution (composition, mM: KCl, 2.7, KH2PO4, 1.5; NaCl, 75, Na2HPO4, 9.6; Na2HPO4. 7H2O, 8; MgSO4, 2; glucose, 5; HEPES, 10; pH 7.4). Cells were isolated by enzymatic dissociation as previously described with minor modifications (Klockner and Isenberg, Pflugers Arch. (1985), 405, 329-339), hereby incorporated by reference. The bladder was cut into small sections and incubated in 5 mL of the Kreb's solution containing 1 mg/mL collagenase (Sigma, St. Louis, Mo.) and 0.2 mg/mL pronase (Calbiochem, La Jolla, Calif.) with continuous stirring in a cell incubator for 30 minutes. The mixture was then centrifuged at 1300×g for 5 minutes, and the pellet resuspended in Dulbecco's PBS (GIBCO, Gaithersburg, Md.) and recentrifuged to remove residual enzyme. The cell pellet was resuspended in 5 mL growth media (composition: Dulbecco's modified Eagle's medium supplemented with 10% fetal bovine serum, 100 units/mL penicillin, 100 units/mL streptomycin and […] amphotericin B) and further dissociated by pipetting the suspension through a flame-polished Pasteur pipette and passing it through a polypropylene mesh membrane (Spectrum, Houston, Tex.). The cell density was adjusted to 100,000 cells/mL by resuspension in growth media Cells were plated in clear-bottomed black 96-well plates (Packard) for membrane potential studies at a density of 20,000 cells/well and maintained in a cell incubator with 90% air: 10% CO2 until confluent. Cells were confirmed to be of smooth muscle type by cytoskeletal staining using a monoclonal mouse anti human-α-smooth muscle actin (Biomeda, Foster City, Calif.).
Functional activity at potassium channels was measured by evaluating changes in membrane potential using the bis-oxonol dye DiBAC(4)3 (Molecular Probes) in a 96-well cell-based kinetic assay system, Fluorescent Imaging Plate Reader (FLIPR) (K. S. Schroeder et al., J. Biomed. Screen., v. 1 pp. 75-81 (1996)), hereby incorporated by reference. DiBAC(4)3 is an anionic potentiometric probe which partitions between cells and extracellular solution in a membrane potential-dependent manner. With increasing membrane potential (for example, K^+ depolarization), the probe further partitions into the cell; this is measured as an increase in fluorescence due to dye interaction with intracellular lipids and proteins. Conversely, decreasing membrane potential (hyperpolarization by potassium channel openers) evokes a decrease in fluorescence.
Confluent guinea-pig urinary bladder cells cultured in black clear-bottomed 96-well plates were rinsed twice with […] assay buffer (composition, mM: HEPES, 20; NaCl, 120; KCl, 2; CaCl2, 2, MgCl2, 1, glucose, 5; pH 7.4 at 25° C.) containing 5 μM DiBAC(4)3 and incubated with […] of the buffer in a cell incubator for 30 minutes at 37° C. to ensure dye distribution across the membrane. After recording the baseline fluorescence for 5 minutes, the reference or test compounds, prepared at 10 times the concentration in the assay buffer, were added directly to the wells. Changes in fluorescence were monitored for an additional 25 minutes. Hyperpolarization responses were corrected for any background noise and were normalized to the response observed with 10 μM of the reference compound P1075 (assigned as 100%), a potent opener of smooth muscle KATP channels (Quast et al., Mol. Phanmacol., v. 43 pp. 474-481 (1993)).
Routinely, five concentrations of P1075 or test compounds (log or half-log dilutions) were evaluated and the maximal steady-state hyperpolarization values (expressed as % relative to P1075) plotted as a function of concentration. […]

[2] = tested on: Landrace pig bladder strips; assay: Functional potassium channel opening activity in isolated, field-stimulated bladder strips; conditions: for Index: ED50 for P1075 divided by ED50 for test agonist in a given tissue, averaged; for pEC50: amount causing 50% of the agent's maximal response, field stimulation 0.05 Hz, 0.5 ms, 20 volts, read-out: ED50 (the source's name); for Emax / Efficacy (%P1075): maximal efficacy on stimulated twitch, relative to P1075
Protocol: Compound were evaluated for functional potassium channel opening activity using tissue strips obtained from Landrace pig bladders.
Landrace pig bladders were obtained from female Landrace pigs of 9-30 kg. Landrace pig were euthanized with an intraperitoneal injection of pentobarbital solution, Somlethal ®, J. A. Webster Inc. Sterling Mass. The entire bladder was removed and immediately placed into Krebs Ringer bicarbonate solution (composition, mM: NaCl, 120; NaHCO3, 20; dextrose, 11; KCl, 4.7; CaCl2, 2.5; MgSO4, 1.5; KH2PO4, 1.2; K2EDTA, 0.01, equilibrated with 5% CO2/95% O2 pH 7.4 at 37° C.). Propranolol (0.004 mM) was included in all of the assays to block β-adrenoceptors. The trigonal and dome portions were discarded. Strips 3-5 mm wide and 20 mm long were prepared from the remaining tissue cut in a circular fashion. The mucosal layer was removed. One end was fixed to a stationary glass rod and the other to a Grass FT03 transducer at a basal preload of 1.0 gram. Two parallel platinum electrodes were included in the stationary glass rod to provide field stimulation of 0.05 Hz, 0.5 milli-seconds at 20 volts. This low frequency stimulation produced a stable twitch response of 100-500 centigrams. Tissues were allowed to equilibrate for at least 60 minutes and primed with 80 mM KCl. A control concentration response curve (cumulative) was generated for each tissue using the potassium channel opener P1075 as the control agonist. […] After a 60 minute rinsing period, a concentration response curve (cumulative) was generated for the test agonist in the same fashion as that used for control agonist P1075. The maximal efficacy of each compound (expressed as % relative to P1075) is reported. The amount of agent necessary to cause 50% of the agent's maximal response (ED50) was calculated using “ALLFIT” (DeLean et al., Am. J. Physiol., 235, E97 (1980)), hereby incorporated by reference. Agonist potencies were also expressed as an index relative to P1075. The index was calculated by dividing the ED50 for P1075 by the ED50 for the test agonist in a given tissue. Each tissue was used for only one test agonist, and the indices obtained from each tissue were averaged to provide an average index of potency.

Structure (SMILES)	Maximal Response (%P1075) [1] [%P1075]	Index [2]	Emax ([2]; Sus scrofa) [%]	other results
COc1ncccc1Nc1c(NC(NC(=O)c2cc(F)cc(F)c2)C(C)(C)C)c(=O)c1=O (stereo not shown) [Example 82, 3,5-Difluoro-N-[1-({2-[(2-methoxypyridin-3-yl)amino]-3,4-dioxo-1-cyclobuten-1-yl}amino)-2,2-dimethylpropyl]benzamide]	–	–	–	melting point: 221 to 223 °C
CC(C)(C)C(NC(=O)c1ccc(I)cc1)NS(=O)(=O)Nc1cccnc1 (stereo not shown) [Example 34, N-(2,2-Dimethyl-1-{[(3-pyridinylamino)sulfonyl]amino}propyl)-4-iodobenzamide]	–	–	–	melting point: 177 to 178 °C
C=CCOCC(CC)(COCC=C)C(NC(=O)c1ccc(Cl)cc1)Nc1c(Nc2cccnc2)c(=O)c1=O (stereo not shown) [Example 20, N-(2,2-Bis[(allyloxy)methyl]-1-{[3,4-dioxo-2-(3-pyridinylamino)-1-cyclobuten-1-yl]amino}butyl)-4-chlorobenzamide]	98	–	–	–
CC(C)(Cc1ccccc1)C(NC(=O)c1ccc(Cl)cc1)Nc1c(Nc2cccnc2)c(=O)c1=O (stereo not shown) [Example 18, 4-Chloro-N-(-1-{[3,4-dioxo-2-(3-pyridinylamino)-1-cyclobuten-1-yl]amino}-2,2-dimethyl-3-phenylpropyl)benzamide]	97	0.055	62	pEC50 ([2]; Sus scrofa): 4.77; pEC50 [1]: 6.29
Cc1cccc(C(=O)NC(Nc2c(Nc3cccnc3)c(=O)c2=O)C(C)(C)Cc2ccccc2)c1 (stereo not shown) [Example 60, N-(1-{[3,4-Dioxo-2-(3-pyridinylamino)-1-cyclobuten-1-yl]amino}-2,2-dimethyl-3-phenylpropyl)-3-methylbenzamide]	83	0.87	88	pEC50 ([2]; Sus scrofa): 6.17; pEC50 [1]: 7.03
CC(C)(Cc1ccccc1)C(NC(=O)c1cccc(Cl)c1)Nc1c(Nc2cccnc2)c(=O)c1=O (stereo not shown) [Example 59, 3-Chloro-N-(1-{[3,4-dioxo-2-(3-pyridinylamino)-1-cyclobuten-1-yl]amino}-2,2-dimethyl-3-phenylpropyl)benzamide]	–	0.062	57	pEC50 ([2]; Sus scrofa): 5.77
CC(C)(C)C(NC(=O)c1cccc(Cl)c1)Nc1c(Nc2cccnc2)c(=O)c1=O (single isomer, unassigned; (+)) [Example 56, (+) 3-Chloro-N-(1-{[3.4-dioxo-2-(3-pyridinylamino)-1-cyclobuten-1-yl]amino}-2,2-dimethylpropyl)benzamide]	–	0.028	–	pEC50 [2]: 5.66; Efficacy (%P1075) [2]: 94 %P1075
CC(C)(C)C(NC(=O)c1cccc(Cl)c1)Nc1c(Nc2cccnc2)c(=O)c1=O (single isomer, unassigned; (-)) [Example 57, (−) 3-Chloro-N-(1-{[3,4-dioxo-2-(3-pyridinylamino)-1-cyclobuten-1-yl]amino}-2,2-dimethylpropyl)benzamide]	–	0.015	81	pEC50 [2]: 5.40
CCC(CC)(CCC#N)C(NC(=O)c1ccc(Cl)cc1)Nc1c(Nc2cccnc2)c(=O)c1=O (stereo not shown) [Example 19, 4-Chloro-N-(4-cyano-1-{[3,4-dioxo-2-(3-pyridinylamino)-1-cyclobuten-1-yl]amino}-2,2-diethylbutyl)benzamide]	<20	–	–	–
CC(C)(C)[C@H](NC(=O)c1cc(Cl)cc(Cl)c1)Nc1c(Nc2cccnc2Cl)c(=O)c1=O [Example 108, (+) 3,5-Dichloro-N-[(1S)-1-({2-[(2-chloropyridin-3-yl)amino]-3,4-dioxocyclobut-1-en-1-yl}amino)-2,2-dimethylpropyl]benzamide]	–	0.033	89	pEC50 ([2]; Sus scrofa): 5.38
CC(C)(C)C(NC(=O)c1ccc(Cl)cc1)Nc1c(Nc2cccnc2)c(=O)c1=O (stereo not shown) [Example 2, 4-Chloro-N-(1-{[3,4-dioxo-2-(3-pyridinylamino)-1-cyclobuten-1-yl]amino}-2,2-dimethylpropyl)benzamide]	108	0.047	–	–
CC(C)(C)C(NC(=O)c1cc(F)cc(F)c1)Nc1c(Nc2cccnc2)c(=O)c1=O (stereo not shown) [Example 16, N-(1-{[3,4-Dioxo-2-(3-pyridinylamino)-1-cyclobuten-1-yl]amino}-2,2-dimethylpropyl)-3,5-difluorobenzamide]	–	0.046	–	–
CC(C)(Cc1ccccc1)C(NC(=O)c1ccc(Cl)cc1)Nc1c(Nc2cccnc2Cl)c(=O)c1=O (stereo not shown) [Example 31, 4-Chloro-N-[1-({2-[(2-chloro-3-pyridinyl)amino]-3,4-dioxo-1-cyclobuten-1-yl}amino)-2,2-dimethyl-32-phenylpropyl]benzamide]	–	0.039	–	pEC50 [2]: 5.54; Efficacy (%P1075) [2]: 76 %P1075
C=CCC(C)(C)C(NC(=O)c1ccc(Cl)cc1)Nc1c(Nc2cccnc2)c(=O)c1=O (stereo not shown) [Example 17, 4-Chloro-N-(-1-{[3,4-dioxo-2-(3-pyridinylamino)-1-cyclobuten-1-yl]amino}-2,2-dimethyl-4-pentenyl)benzamide]	96	0.028	–	–
Cc1ccc(C(=O)NC(Nc2c(Nc3cccnc3)c(=O)c2=O)C(C)(C)C)cc1 (stereo not shown) [Example 1, N-(1-{[3,4-Dioxo-2-(3-pyridinylamino)-1-cyclobuten-1-yl]amino}-2,2-dimethylpropyl)-4-methylbenzamide]	91	0.008	–	–
CC(C)(C)C(NC(=O)c1ccc(I)cc1)Nc1c(Nc2cccnc2)c(=O)c1=O (stereo not shown) [Example 3, N-(1-{[3,4-Dioxo-2-(3-pyridinylamino)-1-cyclobuten-1-yl]amino}-2,2-dimethylpropyl)-4-iodobenzamide]	–	0.062	–	–
